According to patent publication US12281080B2, “Quinoline-based compounds and methods of inhibiting CDK8/19” (University of South Carolina, priority 2018, dated 2025):

Legend:
Format in all cases: binding
[1] = system: 468 human kinases and disease relevant mutant variants; test: KINOMEscan scanMAX panel, whole panel; details: 2,000 nM; CDK2, 3, 4, 5, 7, 9, 11A, 11B, 13, 14, 15, 16, 17, 18, CDKL1, CDKL3, CDKL5
MYLK4 = MYLK4 (Homo sapiens (Human), UniProt Q86YV6); test: KINOMEscan scanMAX; details: 2000 nM; read-out: Percent Control
FLT1 = FLT1 (Homo sapiens (Human), UniProt P17948); test: KINOMEscan scanMAX; details: 2000 nM; read-out: Percent Control
LZK (MAP3K13) = LZK (MAP3K13) (Homo sapiens (Human), UniProt O43283); test: KINOMEscan scanMAX; details: 2000 nM; read-out: Percent Control
Chain of LZK (MAP3K13) (O43283 whole entry): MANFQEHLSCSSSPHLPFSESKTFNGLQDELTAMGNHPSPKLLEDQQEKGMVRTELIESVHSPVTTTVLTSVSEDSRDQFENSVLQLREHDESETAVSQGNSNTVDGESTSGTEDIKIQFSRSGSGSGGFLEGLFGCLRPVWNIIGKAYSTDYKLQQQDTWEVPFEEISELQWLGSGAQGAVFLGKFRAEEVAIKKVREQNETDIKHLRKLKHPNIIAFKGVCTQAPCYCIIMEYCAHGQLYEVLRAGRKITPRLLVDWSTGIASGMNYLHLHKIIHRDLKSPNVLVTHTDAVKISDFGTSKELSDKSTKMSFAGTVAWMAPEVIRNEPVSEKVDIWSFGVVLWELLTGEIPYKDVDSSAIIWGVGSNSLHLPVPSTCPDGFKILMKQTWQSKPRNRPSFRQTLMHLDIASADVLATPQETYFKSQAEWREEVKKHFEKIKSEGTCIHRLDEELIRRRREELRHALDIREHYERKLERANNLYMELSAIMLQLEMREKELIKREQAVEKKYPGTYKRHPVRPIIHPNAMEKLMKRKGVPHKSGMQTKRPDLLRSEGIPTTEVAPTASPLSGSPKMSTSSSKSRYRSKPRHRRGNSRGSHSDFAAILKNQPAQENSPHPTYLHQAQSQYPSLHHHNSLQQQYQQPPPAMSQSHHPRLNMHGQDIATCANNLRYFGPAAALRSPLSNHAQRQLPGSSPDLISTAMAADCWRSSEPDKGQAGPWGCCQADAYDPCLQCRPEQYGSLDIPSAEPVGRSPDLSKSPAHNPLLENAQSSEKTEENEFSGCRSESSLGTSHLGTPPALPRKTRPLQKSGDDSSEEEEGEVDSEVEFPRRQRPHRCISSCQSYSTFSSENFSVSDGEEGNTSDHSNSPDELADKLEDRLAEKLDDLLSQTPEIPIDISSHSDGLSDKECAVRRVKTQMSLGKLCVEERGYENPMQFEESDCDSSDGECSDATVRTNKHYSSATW

NEK9 = NEK9 (Homo sapiens (Human), UniProt Q8TD19); test: KINOMEscan scanMAX; details: 2000 nM; read-out: Percent Control
BMPR1B = BMPR1B (Homo sapiens (Human), UniProt O00238); test: KINOMEscan scanMAX; details: 2000 nM; read-out: Percent Control
CSF1R-autoinhibited = CSF1R-autoinhibited (Homo sapiens (Human), UniProt P07333); test: KINOMEscan scanMAX; details: 2000 nM; read-out: Percent Control
FGFR3(G697C) = FGFR3(G697C) (Homo sapiens (Human), UniProt P22607, G697C); test: KINOMEscan scanMAX; details: 2000 nM; read-out: Percent Control
Chain of FGFR3(G697C) (P22607 23-806 G697C): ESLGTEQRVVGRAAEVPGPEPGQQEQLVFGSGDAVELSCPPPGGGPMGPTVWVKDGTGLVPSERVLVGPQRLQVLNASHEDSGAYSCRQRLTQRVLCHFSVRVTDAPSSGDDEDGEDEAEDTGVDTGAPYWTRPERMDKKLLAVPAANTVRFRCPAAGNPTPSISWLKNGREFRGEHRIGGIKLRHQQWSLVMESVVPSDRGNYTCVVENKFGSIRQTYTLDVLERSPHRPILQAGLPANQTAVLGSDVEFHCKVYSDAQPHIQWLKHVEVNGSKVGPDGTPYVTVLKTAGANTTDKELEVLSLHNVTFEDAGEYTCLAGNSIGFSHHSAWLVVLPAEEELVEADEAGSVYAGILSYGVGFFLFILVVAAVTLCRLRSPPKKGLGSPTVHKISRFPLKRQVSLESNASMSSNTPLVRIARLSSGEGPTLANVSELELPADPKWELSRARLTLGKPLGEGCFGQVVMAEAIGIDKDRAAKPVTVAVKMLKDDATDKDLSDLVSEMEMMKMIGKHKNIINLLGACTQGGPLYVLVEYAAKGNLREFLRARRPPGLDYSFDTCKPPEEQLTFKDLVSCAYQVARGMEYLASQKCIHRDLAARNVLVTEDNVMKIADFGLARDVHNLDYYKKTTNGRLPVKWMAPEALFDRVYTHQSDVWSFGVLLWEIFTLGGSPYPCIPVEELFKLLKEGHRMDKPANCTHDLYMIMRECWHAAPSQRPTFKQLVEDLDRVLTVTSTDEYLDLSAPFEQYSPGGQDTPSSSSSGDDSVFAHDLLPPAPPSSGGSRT

BRSK2 = BRSK2 (Homo sapiens (Human), UniProt Q8IWQ3); test: KINOMEscan scanMAX; details: 2000 nM; read-out: Percent Control
ARK5 (NUAK1) = ARK5 (NUAK1) (Homo sapiens (Human), UniProt O60285); test: KINOMEscan scanMAX; details: 2000 nM; read-out: Percent Control
Chain of ARK5 (NUAK1) (O60285 whole entry): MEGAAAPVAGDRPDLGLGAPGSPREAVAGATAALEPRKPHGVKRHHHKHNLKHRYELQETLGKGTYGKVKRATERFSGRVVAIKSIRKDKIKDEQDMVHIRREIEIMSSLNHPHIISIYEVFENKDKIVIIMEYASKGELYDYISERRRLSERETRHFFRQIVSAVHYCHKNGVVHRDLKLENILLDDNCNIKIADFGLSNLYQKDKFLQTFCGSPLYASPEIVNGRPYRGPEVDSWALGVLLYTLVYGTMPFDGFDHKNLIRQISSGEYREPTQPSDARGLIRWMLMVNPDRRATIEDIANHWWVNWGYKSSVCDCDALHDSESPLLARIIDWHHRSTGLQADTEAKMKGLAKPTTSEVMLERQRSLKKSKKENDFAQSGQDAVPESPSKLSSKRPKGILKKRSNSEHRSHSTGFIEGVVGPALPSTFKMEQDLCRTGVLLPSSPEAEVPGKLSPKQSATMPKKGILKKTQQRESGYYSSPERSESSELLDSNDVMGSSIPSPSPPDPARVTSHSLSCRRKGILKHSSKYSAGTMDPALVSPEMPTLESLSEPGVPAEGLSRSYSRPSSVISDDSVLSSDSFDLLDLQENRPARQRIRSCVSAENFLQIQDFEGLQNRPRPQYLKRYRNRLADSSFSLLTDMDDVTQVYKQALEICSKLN

[2] = molecular target: ABL1(M351T)-phosphorylated (Homo sapiens (Human), UniProt P00519, M351T); test: KINOMEscan scanMAX; details: 2000 nM; read-out: Percent Control
SBK1 = SBK1 (Homo sapiens (Human), UniProt Q52WX2); test: KINOMEscan scanMAX; details: 2000 nM; read-out: Percent Control
PIM3 = PIM3 (Homo sapiens (Human), UniProt Q86V86); test: KINOMEscan scanMAX; details: 2000 nM; read-out: Percent Control
CDK4 = CDK4 (Homo sapiens (Human), UniProt P11802); test: KINOMEscan scanMAX; details: 2000 nM; read-out: Percent Control
CSNK1G2 = CSNK1G2 (Homo sapiens (Human), UniProt P78368); test: KINOMEscan scanMAX; details: 2000 nM; read-out: Percent Control
PIP5K1A = PIP5K1A (Homo sapiens (Human), UniProt Q99755); test: KINOMEscan scanMAX; details: 2000 nM; read-out: Percent Control
Chain of PIP5K1A (Q99755 whole entry): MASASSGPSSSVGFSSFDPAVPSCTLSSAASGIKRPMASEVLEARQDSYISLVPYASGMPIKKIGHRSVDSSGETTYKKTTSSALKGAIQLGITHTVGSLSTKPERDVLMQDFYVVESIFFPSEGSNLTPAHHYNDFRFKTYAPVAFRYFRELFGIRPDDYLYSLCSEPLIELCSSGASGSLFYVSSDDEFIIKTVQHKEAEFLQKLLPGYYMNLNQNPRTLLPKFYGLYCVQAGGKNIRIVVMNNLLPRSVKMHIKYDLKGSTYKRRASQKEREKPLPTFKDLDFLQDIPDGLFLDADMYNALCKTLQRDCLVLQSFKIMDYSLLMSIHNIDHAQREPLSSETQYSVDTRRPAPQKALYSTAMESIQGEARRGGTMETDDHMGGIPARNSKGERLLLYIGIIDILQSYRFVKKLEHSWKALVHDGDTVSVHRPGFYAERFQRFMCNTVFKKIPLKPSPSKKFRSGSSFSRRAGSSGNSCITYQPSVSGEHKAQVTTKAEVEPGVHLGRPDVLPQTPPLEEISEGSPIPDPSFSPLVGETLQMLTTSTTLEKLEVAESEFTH

CASK = CASK (Homo sapiens (Human), UniProt O14936); test: KINOMEscan scanMAX; details: 2000 nM; read-out: Percent Control
[3] = molecular target: ABL1(H396P)-nonphosphorylated (Homo sapiens (Human), UniProt P00519, H396P); test: KINOMEscan scanMAX; details: 2000 nM; read-out: Percent Control
BTK = BTK (Homo sapiens (Human), UniProt Q06187); test: KINOMEscan scanMAX; details: 2000 nM; read-out: Percent Control
S6K1 (RPS6KB1) = S6K1 (RPS6KB1) (Homo sapiens (Human), UniProt P23443); test: KINOMEscan scanMAX; details: 2000 nM; read-out: Percent Control
MARK1 = MARK1 (Homo sapiens (Human), UniProt Q9P0L2); test: KINOMEscan scanMAX; details: 2000 nM; read-out: Percent Control
KIT(D816V) = KIT(D816V) (Homo sapiens (Human), UniProt P10721, D816V); test: KINOMEscan scanMAX; details: 2000 nM; read-out: Percent Control
IKK-epsilon (IKBKE) = IKK-epsilon (IKBKE) (Homo sapiens (Human), UniProt Q14164); test: KINOMEscan scanMAX; details: 2000 nM; read-out: Percent Control
Chain of IKK-epsilon (IKBKE) (Q14164 whole entry): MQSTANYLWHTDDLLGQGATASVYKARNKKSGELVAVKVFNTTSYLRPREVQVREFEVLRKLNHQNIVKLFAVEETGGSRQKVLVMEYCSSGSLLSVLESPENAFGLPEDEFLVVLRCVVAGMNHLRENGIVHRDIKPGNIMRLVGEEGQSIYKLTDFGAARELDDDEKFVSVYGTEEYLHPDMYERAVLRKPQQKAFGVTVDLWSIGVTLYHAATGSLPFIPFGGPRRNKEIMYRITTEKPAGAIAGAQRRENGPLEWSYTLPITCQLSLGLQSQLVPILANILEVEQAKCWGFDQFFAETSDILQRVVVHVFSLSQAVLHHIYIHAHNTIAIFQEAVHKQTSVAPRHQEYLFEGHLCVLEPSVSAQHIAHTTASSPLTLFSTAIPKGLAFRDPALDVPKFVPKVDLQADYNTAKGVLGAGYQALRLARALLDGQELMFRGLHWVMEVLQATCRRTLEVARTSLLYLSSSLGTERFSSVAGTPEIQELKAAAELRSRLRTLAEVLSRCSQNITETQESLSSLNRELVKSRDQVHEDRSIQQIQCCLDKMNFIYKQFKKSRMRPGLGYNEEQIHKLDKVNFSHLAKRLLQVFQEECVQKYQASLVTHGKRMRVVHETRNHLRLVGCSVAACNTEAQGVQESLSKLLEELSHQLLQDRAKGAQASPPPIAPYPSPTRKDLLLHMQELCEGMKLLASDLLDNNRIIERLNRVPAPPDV

EIF2AK1 = EIF2AK1 (Homo sapiens (Human), UniProt Q9BQI3); test: KINOMEscan scanMAX; details: 2000 nM; read-out: Percent Control
NEK10 = NEK10 (Homo sapiens (Human), UniProt Q6ZWH5); test: KINOMEscan scanMAX; details: 2000 nM; read-out: Percent Control
FGFR2 = FGFR2 (Homo sapiens (Human), UniProt P21802); test: KINOMEscan scanMAX; details: 2000 nM; read-out: Percent Control
STK16 = STK16 (Homo sapiens (Human), UniProt O75716); test: KINOMEscan scanMAX; details: 2000 nM; read-out: Percent Control
DMPK2 (CDC42BPG) = DMPK2 (CDC42BPG) (Homo sapiens (Human), UniProt Q6DT37); test: KINOMEscan scanMAX; details: 2000 nM; read-out: Percent Control
ALK(L1196M) = ALK(L1196M) (Homo sapiens (Human), UniProt Q9UM73, L1196M); test: KINOMEscan scanMAX; details: 2000 nM; read-out: Percent Control
WEE1 = WEE1 (Homo sapiens (Human), UniProt P30291); test: KINOMEscan scanMAX; details: 2000 nM; read-out: Percent Control
Chain of WEE1 (P30291 whole entry): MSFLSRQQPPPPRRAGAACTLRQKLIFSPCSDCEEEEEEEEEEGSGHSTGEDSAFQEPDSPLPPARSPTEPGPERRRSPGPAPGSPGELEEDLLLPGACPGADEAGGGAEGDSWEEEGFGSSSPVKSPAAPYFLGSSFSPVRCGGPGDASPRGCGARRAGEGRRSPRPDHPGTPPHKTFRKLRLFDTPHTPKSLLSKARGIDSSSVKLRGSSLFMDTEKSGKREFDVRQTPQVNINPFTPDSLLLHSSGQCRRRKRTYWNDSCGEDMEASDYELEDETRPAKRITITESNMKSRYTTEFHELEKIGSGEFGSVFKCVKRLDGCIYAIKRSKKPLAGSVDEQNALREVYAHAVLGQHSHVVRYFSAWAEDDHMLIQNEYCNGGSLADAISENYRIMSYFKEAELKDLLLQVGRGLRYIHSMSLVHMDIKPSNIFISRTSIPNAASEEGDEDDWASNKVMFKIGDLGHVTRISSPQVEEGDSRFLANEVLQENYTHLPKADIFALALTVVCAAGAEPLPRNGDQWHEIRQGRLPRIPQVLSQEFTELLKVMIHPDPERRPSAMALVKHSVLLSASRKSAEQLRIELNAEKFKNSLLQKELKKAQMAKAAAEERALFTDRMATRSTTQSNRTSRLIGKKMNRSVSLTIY

HIPK2 = HIPK2 (Homo sapiens (Human), UniProt Q9H2X6); test: KINOMEscan scanMAX; details: 2000 nM; read-out: Percent Control
[4] = molecular target: ABL1(Q252H)-phosphorylated (Homo sapiens (Human), UniProt P00519, Q252H); test: KINOMEscan scanMAX; details: 2000 nM; read-out: Percent Control
NEK5 = NEK5 (Homo sapiens (Human), UniProt Q6P3R8); test: KINOMEscan scanMAX; details: 2000 nM; read-out: Percent Control
MST4 = MST4 (Homo sapiens (Human), UniProt Q9P289); test: KINOMEscan scanMAX; details: 2000 nM; read-out: Percent Control
PLK2 = PLK2 (Homo sapiens (Human), UniProt Q9NYY3); test: KINOMEscan scanMAX; details: 2000 nM; read-out: Percent Control
Chain of PLK2 (Q9NYY3 whole entry): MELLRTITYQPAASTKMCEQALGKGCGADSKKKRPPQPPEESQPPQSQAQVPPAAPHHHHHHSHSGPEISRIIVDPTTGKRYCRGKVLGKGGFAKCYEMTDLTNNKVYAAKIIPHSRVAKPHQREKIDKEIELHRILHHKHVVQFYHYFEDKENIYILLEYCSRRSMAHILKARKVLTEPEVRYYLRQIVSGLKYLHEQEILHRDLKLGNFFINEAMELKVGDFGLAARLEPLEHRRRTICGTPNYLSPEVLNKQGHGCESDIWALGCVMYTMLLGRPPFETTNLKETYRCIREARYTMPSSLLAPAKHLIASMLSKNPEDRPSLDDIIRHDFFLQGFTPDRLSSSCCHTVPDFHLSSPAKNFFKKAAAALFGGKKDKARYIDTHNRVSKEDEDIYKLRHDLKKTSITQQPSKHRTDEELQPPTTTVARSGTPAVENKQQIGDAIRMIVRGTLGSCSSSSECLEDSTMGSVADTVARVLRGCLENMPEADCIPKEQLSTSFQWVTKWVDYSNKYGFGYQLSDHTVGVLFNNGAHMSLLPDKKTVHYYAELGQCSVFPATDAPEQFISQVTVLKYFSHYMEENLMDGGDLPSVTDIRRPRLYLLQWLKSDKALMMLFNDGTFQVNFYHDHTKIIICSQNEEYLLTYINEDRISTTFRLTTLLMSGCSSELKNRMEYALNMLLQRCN

AKT2 = AKT2 (Homo sapiens (Human), UniProt P31751); test: KINOMEscan scanMAX; details: 2000 nM; read-out: Percent Control
MET = MET (Homo sapiens (Human), UniProt P08581); test: KINOMEscan scanMAX; details: 2000 nM; read-out: Percent Control
MAPKAPK2 = MAPKAPK2 (Homo sapiens (Human), UniProt P49137); test: KINOMEscan scanMAX; details: 2000 nM; read-out: Percent Control
CDK2 = CDK2 (Homo sapiens (Human), UniProt P24941); test: KINOMEscan scanMAX; details: 2000 nM; read-out: Percent Control

`CN1CCN(C(=O)c2ccc3cc(CCNc4ccnc5ccc(C#N)cc45)ccc3c2)CC1` [compound 6148, 4-((2-(6-(4-methylpiperazine-1-carbonyl)naphthalen-2-yl)ethyl)amino)quinoline-6-carbonitrile] was tested, and the “POC of the other members of the CDK family in the scanMAX panel” value [1] was ≥ 64 POC, the remaining binding at 2 µM (MYLK4) was 98% and the remaining binding at 2 µM (FLT1) was 99%. For the same compound, the remaining binding at 2 µM (LZK (MAP3K13)) was 46%, the remaining binding at 2 µM (NEK9) was 97% and the remaining binding at 2 µM (BMPR1B) was 70%. It also gave a remaining binding at 2 µM (CSF1R-autoinhibited) of 91%, a remaining binding at 2 µM (FGFR3(G697C)) of 93% and a remaining binding at 2 µM (BRSK2) of 96%. It also gave a remaining binding at 2 µM (ARK5 (NUAK1)) of 89%, a remaining binding at 2 µM [2] of 80% and a remaining binding at 2 µM (SBK1) of 57%. For the same compound, the remaining binding at 2 µM (PIM3) was 96%, the remaining binding at 2 µM (CDK4) was 67% and the remaining binding at 2 µM (CSNK1G2) was 89%. It also gave a remaining binding at 2 µM (PIP5K1A) of 84%, a remaining binding at 2 µM (CASK) of 84% and a remaining binding at 2 µM [3] of 73%. It also gave a remaining binding at 2 µM (BTK) of 78%, a remaining binding at 2 µM (S6K1 (RPS6KB1)) of 78% and a remaining binding at 2 µM (MARK1) of 81%. The remaining binding at 2 µM (KIT(D816V)) was 100%, the remaining binding at 2 µM (IKK-epsilon (IKBKE)) was 91% and the remaining binding at 2 µM (EIF2AK1) was 84%. The remaining binding at 2 µM (NEK10) was 41%, the remaining binding at 2 µM (FGFR2) was 98% and the remaining binding at 2 µM (STK16) was 71%. It also gave a remaining binding at 2 µM (DMPK2 (CDC42BPG)) of 83%, a remaining binding at 2 µM (ALK(L1196M)) of 92% and a remaining binding at 2 µM (WEE1) of 88%. For the same compound, the remaining binding at 2 µM (HIPK2) was 67%, the remaining binding at 2 µM [4] was 89% and the remaining binding at 2 µM (NEK5) was 97%. The remaining binding at 2 µM (MST4) was 68%, the remaining binding at 2 µM (PLK2) was 80% and the remaining binding at 2 µM (AKT2) was 100%. It also gave a remaining binding at 2 µM (MET) of 90%, a remaining binding at 2 µM (MAPKAPK2) of 91% and a remaining binding at 2 µM (CDK2) of 95%.
